Measured values from patent EP0193414A2, “Liposomes, process for their preparation and compositions containing them” (Fluck, David John, priority 1985, dated 1986).

Experiments:
trypanosomiasis = settings: free drug, cited from earlier work; for period of protection (prophylaxis): Samorin at 0.5-1.0 mg/kg, dependent on dosage and tsetse fly challenge
[1] = cited from earlier work; for side effects: free drug, 1 mg/kg for homidium and 0.5-1.0 mg/kg for Samorin
[2] = depot formation at the injection site after intramuscular injection in goats; type: in vivo, goat
Method: An injection site depot from another goat to which free Samorin in aqueous solution was administered by the same route and at the same dosage as that from this Example was noted to be more diffuse.
Liposomal Berenil was recovered from each depot.

[3] = free drug in aqueous solution; cited from earlier work

CC[n+]1c(-c2ccccc2)c2cc(N)ccc2c2ccc(N)cc21 [Homidium chloride, 2,7-diamino-9-phenyl-10-ethylphenanthridinium]
period of protection (prophylaxis) (trypanosomiasis): ≤ 60 days

CC[n+]1c(-c2ccccc2)c2cc(N)ccc2c2ccc(N)cc21 [homidium, 2,7-diamino-9-phenyl-10-ethylphenanthridinium]
side effects [1]: infrequent | drug depots after administration of free drug ([1]; intramuscular, free drug in aqueous solution): diffuse staining of muscle tissue

N=C(N)c1ccc(N=NNc2ccc(C(=N)N)cc2)cc1 [Berenil, diminazene aceturate]
depot at the injection site ([2]; goat, intramuscular, 3.5 mg/kg live weight (calculated as active ingredient)): no indication of a depot | period of protection (prophylaxis) (trypanosomiasis): a few days only

CC[n+]1c(-c2ccccc2)c2cc(N/N=N/c3cccc(C(=N)N)c3)ccc2c2ccc(N)cc21.[Cl-] [isometamidium chloride]
stability in aqueous solution [3]: rapid lability

CC[n+]1c(-c2ccccc2)c2cc(NN=Nc3cccc(C(=N)N)c3)ccc2c2ccc(N)cc21.Cl.[Cl-] [Samorin, 8-[(m-amidinophenylazo)amino]-3-amino-5-ethyl-6-phenylphenanthridinium chloride hydrochloride]
depot at the injection site ([2]; goat culled 15 days after intramuscular administration, 1 mg/kg live weight Samorin): more diffuse | period of protection (prophylaxis) (trypanosomiasis): 60 to 120 days | dosage with therapeutic trypanocidal action (trypanosomiasis): 0.25 mg/kg | side effects [1]: reaction by the injected tissue to the drug
